Data reported in patent US10695341B2, “Compositions and methods for treating endometriosis” (UNIVERSITY OF SOUTH FLORIDA, priority 2014, dated 2020).

Experiments:
[1] = tested on: uterine horns and endometriotic lesions; experiment: H&E histopathology of uterine horns and lesions from treated mice; type: in vivo, C57BL/6 mice
Experimental: A randomly selected subset of the collected lesions and uterine horns were processed for staining with hematoxylin and eosin (H&E) (pathologically confirmed endometriotic lesions from PBS and HCQ-treated mice, n=15 each; uterine horns derived from PBS-treated mice, n=10; and uterine horns derived from HCQ-treated mice, n=10).
Five-week-old C57BL/6 female mice were purchased from Jackson laboratories. All animals were maintained under standard 12 h photoperiod; food and water were available ad libitum throughout the study. All experimental procedures and animal care were approved by the Animal Care and Use Committee (IACUC) of the University of South Florida (R IS00000101), in accordance with the principles described in the Guide for the Care and Use of Laboratory Animals of the National Institutes of Health. All surgical procedures were performed under aseptic conditions using anesthesia. The mouse model of endometriosis was performed as previously described. […] Lesions were measured using a caliper. Volume of the lesions was calculated according to the formula: 4/3πr^2R.
Collected samples were immediately preserved in 10% neutral buffered formalin at the animal facility. […] Lesions were analyzed from independent blocks. […]

[2] = tested on: G-CSF, eotaxin, and IP-10; experiment: Peritoneal fluid cytokine/chemokine magnetic bead panel; type: in vivo, mouse
Experimental: After animals were euthanized, 1 ml of sterile PBS was injected into the peritoneal cavity, the abdominal area was gently massaged, and the fluid collected. The collected fluid was centrifuged at 1,390 rpm for 5 min at 4° C. and the resulting supernatant was then stored at −80° C. Levels of chemokines and cytokines were analyzed using a MCYTOMAG-70K-PX32 (Millipore, Billerica, Mass.) following manufacturer's instructions. Briefly, 200 μl of wash buffer was added to each well and incubated for 10 min at room temperature in a plate shaker. After incubation, the wash buffer was decanted and the plate was inverted and tapped on absorbent towel several times. Then, 25 μl of assay buffer was added to each well followed by 25 μl of concentration standards, assay controls, or samples. The premixed bottle was vortexed and 25 μl of the beads were added to each well. The plate was incubated overnight at 4° C., protected from light. Then the plate was incubated for 1 min on the hand-held magnet and the well content was gently decanted and tapped on absorbent pads. Each well was washed twice using 200 μl of wash buffer, followed by the incubation on the hand-held magnet. Antibody detection solution was allowed to warm to room temperature, and then 25 μl was added to each well and incubated for 1 h at room temperature on a plate shaker, protected from light. Next, 25 μl of Streptavidin-Phycoerythrin was added to each well containing the detection antibodies and incubated for 30 min at room temperature protected from light on a plate shaker. After the incubation, the plate was washed twice as previously described and 150 μl of Sheath Fluid was added to each well. The plate was analyzed using MAGPIX™ instrument and xPONENT software solutions, version 4.2.

[3] = HCQ-treated vs PBS-treated mice

uterine horns with irregular epithelium pattern ([1]; uterine horns from HCQ-treated mice, 60 mg/kg): 5 out of 10
SMILES: CCN(CCO)CCCC(C)Nc1ccnc2cc(Cl)ccc12 (centres unmarked) [HCQ, hydroxychloroquine]
histology of ectopic growths (glandular components) ([1]; vs PBS, p=0.03 Fisher's exact test): did not histologically resemble endometriotic lesions
IP-10 in peritoneal fluid ([2]; HCQ-treated (n=5) vs PBS-treated mice, p=0.0079): significantly increased
G-CSF in peritoneal fluid [2, 3]: remained unchanged
eotaxin in peritoneal fluid [2, 3]: remained unchanged
